Assay results taken from patent US11103619B2, “Anticalcification treatment for impantable biological tissues using calcitonin” (priority 2018, dated 2021).

Tested on: Porcine aortic leaflets implanted subdermally in male Wistar rats
Test: Post-implantation calcium content of treated porcine aortic leaflets implanted subdermally in rats for 21 days, measured by atomic absorption
Type: in vivo
Conditions: for Cumulative results of post-implantation Ca concentration: mean ± STDEV, p < 0.05 vs Group I (Glut only, 126.95 ± 12.97); for Post implantation Ca Content: explanted after 21 days, mean
Procedure: In one embodiment, the method comprises placing the biological tissue for fixation and preservation in a buffered glutaraldehyde (Glut) solution 0.5% at pH 7.4, adding salmon synthetic calcitonin (CT), such as Miacalcic® of Novartis Hellas A.B.E. In this experiment, two different concentrations of calcitonin were tested. One with 1 unit/100 ml (1%) and the other with 10 units/100 ml (10%). The first fixation process lasted one hour, at a pressure between 2-3 mmHg and subsequently the biological tissues were embedded in an accordingly new solution for one week.
Porcine aortic leaflets were selected as fresh tissue from a local slaughter house and were cut radially in three parts. Following harvesting, the biological tissue is rinsed and maintained in cold Hepa saline solution (temperature between 4°-12° C.) between two to six hours.
Three groups of tissue were created. Group I (Glut only), Group II (Glut with 1% CT) and Group III (Glut with 10% CT). All tissues were then implanted subdermally in three sets of 8 (Group I), 9 (Group II) and 9 (Group III) male Wistar rats of 12 days old (Center for Experimental Surgery, Biomedical Research Foundation of the Academy of Athens). […] All tissues were rinsed three times in normal saline solution for 10 minutes each time before implantation. Each rat received four fragments of tissue at the dorsum, through four separate incisions (two at each side) each of 1 cm long, with a technique we have previously described elsewhere (Agathos E A et al: “In vivo calcification of glutaraldehyde fixed cardiac valve and pericardium of Phoca Groenlandica”: ASAIO 57(4):328-332, July/August 2011).
21 days later the rats were euthanized by inhalation of CO2. All procedures were approved by the Animal Care Committee of the Academy of Athens and performed according to the Guide for the Care and Use of Laboratory Animals prepared by the Institutes of Laboratory Animal Resources, National Research Council and published by the National Academy Press, revised 1996 (NIH publication No. 85-23). The tissues were retrieved and after rinsing with distilled water 3 times, were lyophilized at −40° C. at high vacuum pressure of approximately […] for 16 hours. The calcium content was then measured with flat atomic absorption technique.
For statistical analysis, the commercially available software package ANOVA Origin 8.0 for Windows (OriginLab Corporation, Northampton, Mass., USA) was used. P values of 0.05 or less were defined as a statistically significant difference.

For salmon synthetic calcitonin [CT], the “Ca concentration accumulation in the explanted tissues (fold, post vs pre implantation)” value (Group II (1% CT)) was 5.16 ×, the “Cumulative results of post-implantation Ca concentration” value (Group II (1% CT), ns vs Group III) was 24.69 ± 2.71 and the “Post implantation Ca Content” value (Group II: Glut with 1% CT) was 24.69 mg Ca/gr tissue. For the same substance, the “Ca concentration accumulation in the explanted tissues (fold, post vs pre implantation)” value (Group III (10% CT)) was 9.43 ×, the “Cumulative results of post-implantation Ca concentration” value (Group III (10% CT), ns vs Group II) was 27.16 ± 2.95 and the “Post implantation Ca Content” value (Group III: Glut with 10% CT) was 27.16 mg Ca/gr tissue.
